For six molecules, TGI and GI50 results are on record in PubChem BioAssay (NCI).

Among the test systems are NCI/ADR-RES ovarian; UO-31 renal; NCI-H460 lung; CAKI-1 renal; U251 CNS; HOP-62 NSCLC; SK-MEL-2 melanoma; MOLT-4 leukemia; NCI-H23 lung; EKVX NSCLC.
What all share (experiment): inhibition of tumour cell growth, NCI panel, 48 h

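Interpolation was linear, between the two tested concentrations surrounding the appropriate level; five concentrations were tested over 48 hours in 96-well plates. Here, GI50 denotes the concentration required for 50% inhibition of growth. TGI marks complete inhibition of growth.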

As for `Cc1ccc(-c2csc(=Nc3c(C)n(C)n(-c4ccccc4)c3=O)n2CCO)cc1`, the TGI in the test on NCI/ADR-RES ovarian, in the test on UO-31 renal, in the test on NCI-H460 lung, with CAKI-1 renal, in the test on U251 CNS and in the test on HOP-62 NSCLC was above 100 µM each time. Besides, the TGI in the test with SK-MEL-2 melanoma, in the test with MOLT-4 leukemia, in the test with NCI-H23 lung and in the test on EKVX NSCLC was above 100 µM each time.

For the molecule `CCCCCCCCCCCCCCCCOCC(COP(=O)([O-])OCC[N+](C)(C)C)OCCCCCCCCCCCCCCCC` (stereo not given), the TGI in the test on NCI/ADR-RES ovarian, in the test with UO-31 renal, with NCI-H460 lung, in the test with CAKI-1 renal, in the test with U251 CNS and in the test with HOP-62 NSCLC was above 100 µM each time. The TGI in the test on SK-MEL-2 melanoma, with MOLT-4 leukemia, with NCI-H23 lung and in the test with EKVX NSCLC was above 100 µM each time.

Consider `COc1cc2c3c(n(CCCNCCCNCCCn4c5c(c6ccccc6c4=O)C(=O)c4ccccc4-5)c(=O)c2cc1OC)-c1cc2c(cc1C3=O)OCO2`, for which the GI50 in the test on NCI/ADR-RES ovarian is above 40.5 µM; with UO-31 renal, 0.0272 µM; with NCI-H460 lung, below 0.01 µM; with CAKI-1 renal it was 0.158 µM; in the test with U251 CNS, below 0.01 µM; in the test with HOP-62 NSCLC, below 0.0434 µM. Besides, the GI50 in the test on SK-MEL-2 melanoma is 0.64 µM; in the test on MOLT-4 leukemia it was below 0.01 µM; in the test with NCI-H23 lung it was below 0.01 µM; in the test on EKVX NSCLC it was below 0.01 µM. Further, the TGI in the test on NCI/ADR-RES ovarian was above 67.1 µM; with UO-31 renal, 1.69 µM; in the test on NCI-H460 lung it was 0.0113 µM; in the test on CAKI-1 renal, 2.53 µM; with U251 CNS it was 0.0205 µM; with HOP-62 NSCLC, 0.695 µM. Besides, the TGI was 3.1 µM with SK-MEL-2 melanoma, above 100 µM in the test on MOLT-4 leukemia, 0.0826 µM in the test on NCI-H23 lung and 0.578 µM in the test with EKVX NSCLC.

`CC(C)[C@](O)(C(=O)OCC1CC[N+]2([O-])CC[C@@H](O)C12)[C@H](C)O` (stereo not given in full): the TGI in the test on NCI/ADR-RES ovarian is above 375 µM; in the test with UO-31 renal, above 375 µM; in the test with NCI-H460 lung, above 159 µM; in the test with CAKI-1 renal it was above 375 µM; in the test on U251 CNS it was above 375 µM; in the test on HOP-62 NSCLC, above 375 µM. Besides, the TGI in the test with SK-MEL-2 melanoma is above 317 µM; in the test with MOLT-4 leukemia, above 375 µM; in the test with NCI-H23 lung it was above 375 µM; in the test with EKVX NSCLC, above 375 µM.

With `CC(C)(C)C(=O)C(C(c1ccccc1)N1CCOCC1)N1CCOCC1` (stereo not given), the TGI with NCI/ADR-RES ovarian, in the test on UO-31 renal, with NCI-H460 lung, with CAKI-1 renal, with U251 CNS and in the test with HOP-62 NSCLC was above 100 µM in each case. For the same molecule, the TGI with SK-MEL-2 melanoma, in the test on MOLT-4 leukemia, with NCI-H23 lung and in the test with EKVX NSCLC was above 100 µM each time.

Turning to `COc1ccc(N2C(=O)C3c4[nH]c5cccc(C)c5c4C4CCC(C(C)(C)C)CC4C3C2=O)cc1` (stereo not given), the TGI in the test with NCI/ADR-RES ovarian, with UO-31 renal, in the test on NCI-H460 lung, in the test on CAKI-1 renal, with U251 CNS and with HOP-62 NSCLC was above 10 µM each time. Besides, the TGI with SK-MEL-2 melanoma, with MOLT-4 leukemia, in the test on NCI-H23 lung and in the test with EKVX NSCLC was above 10 µM throughout.
